The record followed here is ChEMBL document CHEMBL5724696, “Autophagy assay results for EUbOPEN Chemogenomics Library” (2024).

Assay [1] relates to U2OS. Kind of assay: (§1) Here: values are normalized to the positive (DMSO; basel flux = defined as 100% suppression) and negative (250nM Torin1; mTOR inhibitor; maximal inducer of autophagy defined as 0% suppression) control compounds and represented as % of ER-phagy suppression. […] The impact of autophagy induction on cells is complex and depends on the affected target. […] Of note, treatment concentrations may be sub-optimal for specific compounds, leading to false negative annotations. In kind it is functional, Homo sapiens. The following applies: Compound Concentration 1 uM, Culturing Media DMEM, 1 % Penicillin/Streptomycin, 10% Fetal bovin serum Add-On: blasticidin, Screening Media Control DMEM, 10% Fetal bovin serum Add-On: 1 µg/ml Doxycyclin, Screening Media Samples DMEM.

Assay [2] has as its system U2OS. The description is as §1. The following applies: Compound Concentration 1 uM, Culturing Media DMEM, 1 % Penicillin/Streptomycin, 10% Fetal bovin serum Add-On: blasticidin, Screening Media Control DMEM, 10% Fetal bovin serum Add-On: 1 µg/ml Doxycyclin, Screening Media Samples DMEM. The class given is functional, Homo sapiens. The source holds these as a separate data set.

Setting [3] is: Timepoint 12 hours, 10% Fetal bovin serum Add-On: 1 µg/ml Doxycyclin 250nM Torin1.
Setting [4] is: Timepoint 24 hours, 10% Fetal bovin serum Add-On: 1 µg/ml Doxycyclin 250nM Torin1.
Setting [5] is: Timepoint 36 hours, 10% Fetal bovin serum Add-On: 1 µg/ml Doxycyclin 250nM Torin1.
[6] abbreviates: Timepoint 60 hours, 10% Fetal bovin serum Add-On: 1 µg/ml Doxycyclin 250nM Torin1.
Setting [7] is: Timepoint 54 hours, 10% Fetal bovin serum Add-On: 1 µg/ml Doxycyclin 250nM Torin1.
Setting [8] is: Timepoint 12 hours, 10% Fetal bovin serum Add-On: 1 µg/ml Doxycyclin 250nM Torin1, 12 h, 1 µM.
Setting [9] is: Timepoint 24 hours, 10% Fetal bovin serum Add-On: 1 µg/ml Doxycyclin 250nM Torin1, 24 h, 1 µM.
Setting [10] is: Timepoint 36 hours, 10% Fetal bovin serum Add-On: 1 µg/ml Doxycyclin 250nM Torin1, 36 h, 1 µM.

Several values for one entry are separate records, joined by “and”; a condition that tells them apart may be missing. Identical values can stand only once.

Turning to `Cc1cc(Nc2nccc(C)n2)cc(-c2cnc([C@@]3(O)CC[C@H](C(=O)O)C(C)(C)C3)s2)c1` [MRL-SYKi], the ER-phagy suppression is recorded as -8.621% in the assay with U2OS [1] (setting [3]); -15.4814% with U2OS [1] (setting [4]); -12.3884% in the assay with U2OS [1] (setting [5]); -21.2275% in the assay on U2OS [1] (setting [6]); -2.1095% with U2OS [2] (setting [3]); -20.7857% with U2OS [2] (setting [4]). In addition, the ER-phagy suppression is given as -24.9988% in the assay on U2OS [2] (setting [5]) and -19.5267% in the assay with U2OS [2] (setting [7]).

With `CN(C)C(=O)/C(C#N)=C/c1ccc(-c2nc3cnc4[nH]ccc4c3n2C2CCCCC2)o1`, the ER-phagy suppression in the assay on U2OS [1] (setting [3]) is recorded as -17.3558%; in the assay with U2OS [1] (setting [4]), -33.4897%; in the assay on U2OS [1] (setting [5]), -33.7439%; in the assay on U2OS [1] (setting [6]), -36.9146%; in the assay with U2OS [2] (setting [3]), -7.884%; with U2OS [2] (setting [4]), -25.0962%. Moreover, the ER-phagy suppression is on record as -37.4199% in the assay with U2OS [2] (setting [5]) and -35.162% in the assay with U2OS [2] (setting [7]).

Regarding `CNCc1ccc(-c2cc(-c3nc(-c4ccc(S(=O)(=O)C(C)C)cc4)cnc3N)on2)cc1` [BERZOSERTIB], the ER-phagy suppression in the assay with U2OS [1] (setting [3]) was 117.5%; in the assay with U2OS [1] (setting [4]) it was 96.408%; with U2OS [1] (setting [5]), 85.8575%; in the assay on U2OS [1] (setting [6]), 85.0285%; in the assay on U2OS [2] (setting [3]), 54.7938%; in the assay with U2OS [2] (setting [4]), 32.6309%. Besides, the ER-phagy suppression worked out at 31.7276% in the assay with U2OS [2] (setting [5]) and 38.9692% in the assay with U2OS [2] (setting [7]).

On to `CN(C)C1CC(n2cnc(-c3ccc(F)cc3)c2-c2ccnc3[nH]ccc23)C1` (configuration not stated), for which the ER-phagy suppression in the assay with U2OS [1] (setting [3]) was -29.1009%; in the assay with U2OS [1] (setting [4]), -31.4509%; with U2OS [1] (setting [5]), -16.9551%; in the assay on U2OS [1] (setting [6]) it was -15.1332%; in the assay on U2OS [2] (setting [3]) it was 7.195%; with U2OS [2] (setting [4]), 4.326%. The ER-phagy suppression in the assay on U2OS [2] (setting [5]) turned out to be 10.3106%; with U2OS [2] (setting [7]), 11.0097%.

In the case of `Cc1cnc(-c2cc(Cl)ccc2F)cc1-n1c(=O)n(CC(N)=O)c2ccccc21` [Al11], the ER-phagy suppression with U2OS [1] (setting [3]) was -12.5733%; in the assay with U2OS [1] (setting [4]), -18.3016%; in the assay with U2OS [1] (setting [5]) it was -21.1778%; with U2OS [1] (setting [6]) it was -20.9921%; in the assay with U2OS [2] (setting [3]), -9.163%; in the assay on U2OS [2] (setting [4]) it was -26.2915%. Also, the ER-phagy suppression with U2OS [2] (setting [5]) is -35.1418%; in the assay with U2OS [2] (setting [7]), -38.7834%.

Take `COc1ccccc1-c1cc(Nc2cccc(CS(N)(=O)=O)c2)ncn1`: the ER-phagy suppression with U2OS [1] (setting [3]) is on record as 64.2077%; in the assay on U2OS [1] (setting [4]), 50.2137%; in the assay with U2OS [1] (setting [5]) it was 56.273%; with U2OS [1] (setting [6]) it was 39.1119%; with U2OS [2] (setting [3]), -2.879%; in the assay on U2OS [2] (setting [4]), 2.7876%. Moreover, the values for the ER-phagy suppression with U2OS [2] (setting [5]) and with U2OS [2] (setting [7]) were 9.9584% and 17.8632%, respectively.

As for `Cc1ccc(NC(=O)Nc2cc(C(F)(F)F)ccc2F)cc1Nc1ccc2c(c1)NC(=O)/C2=C\c1ccc[nH]1`, the ER-phagy suppression in the assay with U2OS [1] (setting [3]) is 18.743%; in the assay on U2OS [1] (setting [4]), -2.579%; in the assay on U2OS [1] (setting [5]), -6.116%; in the assay on U2OS [1] (setting [6]) it was -1.261%; with U2OS [2] (setting [3]), -7.664%; in the assay with U2OS [2] (setting [4]), -22.8744%. Besides, the ER-phagy suppression is reported as -24.0512% in the assay on U2OS [2] (setting [5]) and -22.1975% with U2OS [2] (setting [7]).

Turning to `COc1cc(Nc2ncc3c(n2)-c2ccc(Cl)cc2C(c2c(F)cccc2OC)=NC3)ccc1C(=O)O` [ALISERTIB], the ER-phagy suppression in the assay with U2OS [1] (setting [8]) was 32.5772% and 15.1943%; in the assay with U2OS [1] (setting [9]), 46.3416% and 31.463%; with U2OS [1] (setting [10]), 37.5206% and 17.8935%; in the assay on U2OS [1] (Timepoint 60 hours, 10% Fetal bovin serum Add-On: 1 µg/ml Doxycyclin 250nM Torin1, 60 h, 1 µM), 42.3508% and 18.9115%; in the assay on U2OS [2] (setting [8]), 17.2717% and 22.6318%; in the assay with U2OS [2] (setting [9]) it was 12.1028% and 15.999%. The ER-phagy suppression with U2OS [2] (setting [10]) was -4.94% and 1.582%; in the assay with U2OS [2] (Timepoint 54 hours, 10% Fetal bovin serum Add-On: 1 µg/ml Doxycyclin 250nM Torin1, 54 h, 1 µM), 5.417% and 8.819%.

In the case of `CCOc1cn(-c2ccc(F)cc2C)nc1C(=O)Nc1ccc(Oc2ccnc3cc(OC)c(OC)cc23)c(F)c1`, the ER-phagy suppression with U2OS [1] (setting [3]) is 7.441%; in the assay on U2OS [1] (setting [4]), -3.201%; in the assay on U2OS [1] (setting [5]), 13.658%; in the assay on U2OS [1] (setting [6]) it was 1.882%; with U2OS [2] (setting [3]), 8.613%; in the assay with U2OS [2] (setting [4]), -11.0646%. The ER-phagy suppression in the assay on U2OS [2] (setting [5]) is on record as -14.9155%; in the assay with U2OS [2] (setting [7]), -19.0742%.

Regarding `O=C(O)CSc1ncnc2sc(-c3cc4ccccc4s3)cc12`, the ER-phagy suppression in the assay on U2OS [1] (setting [3]) is given as -22.3534%; in the assay with U2OS [1] (setting [4]), -5.037%; with U2OS [1] (setting [5]), -13.712%; in the assay on U2OS [1] (setting [6]), -10.482%; with U2OS [2] (setting [3]), -2.052%; with U2OS [2] (setting [4]) it was -18.7288%. Moreover, the figures for the ER-phagy suppression with U2OS [2] (setting [5]) and in the assay on U2OS [2] (setting [7]) were -21.1701% and -12.8701%, respectively.

In the case of `CC(C)C(=O)Nc1n[nH]c2cc(-c3cccc(NS(=O)(=O)C4CC4)c3)ccc12`, the ER-phagy suppression is on record as 0.1153% in the assay on U2OS [1] (setting [3]); 4.089% in the assay with U2OS [1] (setting [4]); -6.11% in the assay on U2OS [1] (setting [5]); -14.0127% in the assay with U2OS [1] (setting [6]); 3.579% in the assay on U2OS [2] (setting [3]); -4.784% with U2OS [2] (setting [4]). Besides, the ER-phagy suppression in the assay with U2OS [2] (setting [5]) was -8.796%; in the assay on U2OS [2] (setting [7]), -3.527%.

`CCN(Cc1ccc(Cl)cc1)c1ncc(C(=O)NCCCN2CCCC2=O)c(NC2CCCC2)n1`: the ER-phagy suppression in the assay on U2OS [1] (setting [3]) was 19.3372%; in the assay on U2OS [1] (setting [4]), 13.3398%; in the assay on U2OS [1] (setting [5]), 3.8795%; in the assay with U2OS [1] (setting [6]), -6.981%; in the assay with U2OS [2] (setting [3]), -0.9186%; with U2OS [2] (setting [4]), -13.7517%. In addition, the figures for the ER-phagy suppression in the assay with U2OS [2] (setting [5]) and in the assay with U2OS [2] (setting [7]) were -21.2457% and -16.9406%, respectively.

For `Cc1cc(C)c(-n2ccn3nc(-c4cccnc4)cc23)cc1NC(=O)c1cc(C#N)cc(S(F)(F)(F)(F)F)c1` [BAY-826], the ER-phagy suppression came to 10.7254% with U2OS [1] (setting [3]); 6.3786% in the assay on U2OS [1] (setting [4]); 7.428% in the assay on U2OS [1] (setting [5]); 6.537% with U2OS [1] (setting [6]); 21.4229% with U2OS [2] (setting [3]); 9.146% in the assay on U2OS [2] (setting [4]). Moreover, the ER-phagy suppression in the assay with U2OS [2] (setting [5]) was found to be 4.6%; in the assay on U2OS [2] (setting [7]), 19.8518%.

On to `CN(C)C(=O)Cn1cc(-c2ccc(-c3cncc4ccccc34)cc2)cn1`, for which the ER-phagy suppression in the assay on U2OS [1] (setting [3]) is -8.903%; in the assay with U2OS [1] (setting [4]) it was 10.8163%; in the assay with U2OS [1] (setting [5]), 25.7126%; in the assay on U2OS [1] (setting [6]) it was 36.3142%; in the assay on U2OS [2] (setting [3]) it was 5.324%; in the assay with U2OS [2] (setting [4]), 37.0971%. The ER-phagy suppression stood at 57.9552% with U2OS [2] (setting [5]) and 74.4134% with U2OS [2] (setting [7]).
